Measurements: ChEMBL document CHEMBL1201862, “PubChem BioAssay data set” (2004)
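A five-concentration, 48-hour dose response in 96-well plates underlies each endpoint, interpolated linearly between surrounding concentrations. Here, GI50 denotes the concentration required for 50% inhibition of growth.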 Active and inactive are the calls of the source. No stated cut-off is given here; in the data, active = GI50 up to about 1.1 µM and inactive = higher.

Tests used:
Test in all cases: inhibition of tumour cell growth, NCI panel, 48 h
M19-MEL = test system: M19-MEL
RXF 393 = test system: RXF 393
CAKI-1 = test system: CAKI-1
HOP-92 = test system: HOP-92
COLO 205 = test system: COLO 205
LXFL 529 = test system: LXFL 529
HCT-116 = test system: HCT-116
U-251 = test system: U-251
786-0 = test system: 786-0
HT-29 = test system: HT-29
NCI-H23 = test system: NCI-H23
SK-MEL-2 = test system: SK-MEL-2
SNB-75 = test system: SNB-75
UACC-257 = test system: UACC-257
OVCAR-4 = test system: OVCAR-4
Malme-3M = test system: Malme-3M

Measured: GI50

COC(=O)/C(=C/c1ccc(OC)cc1)C(C(=O)O)=C1CCCC1
inactive: M19-MEL > 100 µM | RXF 393 > 100 µM | CAKI-1 > 100 µM | HOP-92 > 100 µM | COLO 205 > 100 µM | LXFL 529 > 100 µM | HCT-116 > 100 µM | U-251 > 100 µM | 786-0 > 100 µM | HT-29 > 100 µM | NCI-H23 > 100 µM | SK-MEL-2 > 100 µM | SNB-75 > 100 µM | UACC-257 > 100 µM | OVCAR-4 > 100 µM

CC1=C(C(=O)CC(=O)C(=O)Nc2ccc(C)c(C)c2)Sc2ccccc2N1
inactive: Malme-3M > 100 µM | M19-MEL > 100 µM | RXF 393 > 100 µM | CAKI-1 > 100 µM | HOP-92 > 100 µM | COLO 205 > 100 µM | LXFL 529 > 100 µM | HCT-116 > 100 µM | U-251 > 100 µM | 786-0 > 100 µM | HT-29 > 100 µM | NCI-H23 > 100 µM | SNB-75 > 100 µM | UACC-257 > 100 µM | OVCAR-4 > 100 µM

CC(=O)/C=C1\CC(=O)Nc2ccccc2N1
inactive: Malme-3M > 100 µM | RXF 393 > 100 µM | CAKI-1 > 100 µM | HOP-92 > 100 µM | LXFL 529 > 100 µM | HCT-116 > 100 µM | U-251 > 100 µM | 786-0 > 100 µM | HT-29 > 100 µM | NCI-H23 > 100 µM | SK-MEL-2 > 100 µM | SNB-75 > 100 µM | UACC-257 > 100 µM | OVCAR-4 > 100 µM

NC(CCc1nc(-c2ccccc2)cs1)C(=O)O (centres undefined)
inactive: Malme-3M > 100 µM | M19-MEL > 100 µM | RXF 393 > 100 µM | CAKI-1 > 100 µM | HOP-92 > 100 µM | COLO 205 > 100 µM | LXFL 529 > 100 µM | HCT-116 > 100 µM | U-251 > 100 µM | 786-0 81.7 µM | HT-29 > 100 µM | NCI-H23 > 100 µM | SNB-75 59.6 µM | UACC-257 > 100 µM

Cc1ccc2c(c1)CNc1ccc(C)cc1CN2
inactive: M19-MEL > 100 µM | CAKI-1 > 100 µM | HOP-92 > 100 µM | COLO 205 > 100 µM | LXFL 529 > 100 µM | HCT-116 > 100 µM | U-251 > 100 µM | 786-0 > 100 µM | HT-29 > 100 µM | NCI-H23 > 100 µM | SK-MEL-2 > 100 µM | SNB-75 3.19 µM | OVCAR-4 > 100 µM

CCOC(=O)C1(C/C=C(/C)Cl)CCCC1=O (centres undefined)
inactive: Malme-3M > 100 µM | M19-MEL > 100 µM | RXF 393 > 100 µM | CAKI-1 > 100 µM | COLO 205 > 100 µM | LXFL 529 > 100 µM | HCT-116 > 100 µM | U-251 > 100 µM | 786-0 > 100 µM | HT-29 > 100 µM | NCI-H23 > 100 µM | SK-MEL-2 > 100 µM | SNB-75 > 100 µM | UACC-257 > 100 µM | OVCAR-4 > 100 µM

CCOc1ccc(NC(=O)CC#N)cc1
inactive: Malme-3M > 100 µM | M19-MEL > 100 µM | RXF 393 > 100 µM | CAKI-1 > 100 µM | COLO 205 > 100 µM | LXFL 529 > 100 µM | HCT-116 > 100 µM | U-251 > 100 µM | 786-0 > 100 µM | HT-29 > 100 µM | NCI-H23 > 100 µM | SK-MEL-2 > 100 µM | SNB-75 > 100 µM | UACC-257 > 100 µM | OVCAR-4 > 100 µM

O=C1C(Cl)C(c2ccccc2)N1n1cnc2ccccc2c1=O (centres undefined)
inactive: Malme-3M > 100 µM | M19-MEL > 100 µM | RXF 393 76.9 µM | CAKI-1 37.8 µM | COLO 205 > 100 µM | LXFL 529 > 100 µM | HCT-116 > 100 µM | U-251 > 100 µM | 786-0 > 100 µM | HT-29 > 100 µM | NCI-H23 > 100 µM | SK-MEL-2 > 100 µM | SNB-75 19.4 µM | UACC-257 > 100 µM | OVCAR-4 > 100 µM

CC(C)=CCOc1ccc(-c2coc3cc4c(c(O)c3c2=O)C=CC(C)(C)O4)cc1
inactive: M19-MEL 47.9 µM | RXF 393 > 100 µM | COLO 205 > 100 µM | LXFL 529 20.9 µM | HCT-116 6.9 µM | U-251 38.8 µM | 786-0 96.8 µM | HT-29 > 100 µM | NCI-H23 5.35 µM | UACC-257 14.3 µM | OVCAR-4 16.7 µM

O=C1/C(=C/c2cc(O)c(O)c(O)c2)Oc2cc(O)cc(OC3OC(CO)C(O)C(O)C3O)c21 (centres undefined)
inactive: M19-MEL 18 µM | HOP-92 3.82 µM | COLO 205 22.2 µM | LXFL 529 14.6 µM | HCT-116 16.3 µM | U-251 > 10 µM | 786-0 27.9 µM | HT-29 23.9 µM | NCI-H23 19.1 µM | SK-MEL-2 16.2 µM | SNB-75 > 100 µM | OVCAR-4 2.06 µM

Cc1cccc(C)c1NC(=O)/C(=N/NC(N)=S)C(C)C(=O)c1ccc(Cl)cc1 (centres undefined)
inactive: Malme-3M > 100 µM | M19-MEL > 100 µM | CAKI-1 > 100 µM | HOP-92 > 100 µM | COLO 205 > 100 µM | LXFL 529 > 100 µM | HCT-116 > 100 µM | U-251 > 100 µM | 786-0 > 100 µM | HT-29 75.9 µM | NCI-H23 > 100 µM | SK-MEL-2 > 100 µM | SNB-75 > 100 µM | UACC-257 > 100 µM | OVCAR-4 78.5 µM

O=[PH](O)c1cc2c3ccccc3ccc2c2ccccc12
inactive: M19-MEL > 100 µM | RXF 393 > 100 µM | COLO 205 > 100 µM | LXFL 529 > 100 µM | HCT-116 > 100 µM | U-251 > 100 µM | 786-0 > 100 µM | HT-29 > 100 µM | NCI-H23 > 100 µM | SNB-75 > 100 µM | OVCAR-4 > 100 µM

C=CCc1cc(-c2cc(CC=C)c(O)c(CNCCCl)c2)cc(CNCCCl)c1O
inactive: Malme-3M 22.2 µM | M19-MEL 17.1 µM | HOP-92 10.6 µM | COLO 205 17.9 µM | LXFL 529 15.1 µM | HCT-116 19.4 µM | U-251 16.6 µM | 786-0 28.6 µM | HT-29 17.4 µM | NCI-H23 16 µM | SK-MEL-2 19.2 µM | SNB-75 12.3 µM | UACC-257 17.4 µM | OVCAR-4 22.9 µM

COC(=O)C1Cc2c([nH]c3ccccc23)C(C2CCCCC2)N1 (centres undefined)
inactive: Malme-3M > 100 µM | M19-MEL > 100 µM | CAKI-1 > 100 µM | HOP-92 > 100 µM | COLO 205 > 100 µM | LXFL 529 > 100 µM | HCT-116 > 100 µM | U-251 > 100 µM | 786-0 > 100 µM | HT-29 > 100 µM | NCI-H23 > 100 µM | SK-MEL-2 > 100 µM | SNB-75 > 100 µM | UACC-257 > 100 µM | OVCAR-4 > 100 µM
